We go through one substance from patent US9249108B2, “Multicomponent system of rosuvastatin calcium salt and sorbitol” (BASF SE, priority 2010, dated 2016).

The format of series [1] is physicochemical. Here is the method: Aqueous Solubility Determination: Approximately 0.5 mL of doubly distilled water is added to 16 to 39 mg of the substance to be measured. The resulting suspension is equilibrated in a temperature-controlled Eppendorf Thermomixer Comfort shaker for 2 h and 24 h at 25° C. at a shaking rate of 600 rpm. After 24 h the solid phase is recovered by filter centrifugation (0.10-μm PVDF membrane) and examined by XRPD. Concentrations in the filtrate after 2 h and 24 h (i.e., saturated solutions) are determined using HPLC. The pH of the saturated solution is determined with a Metrohm 713 pH meter.

Series [2] can be described thus: Water uptake under humidity. The series is classed as physicochemical.

Take “Rosuvastatin hemicalcium salt/crystal form D (1:1 co-crystal with D-sorbitol)”: the solubility entry in series [1] is reported as “as good as solid forms of Rosuvastatin calcium previously known”. The “water uptake under humidity” value in series [2] was “less prone to water uptake under humidity”.
